Measured values reported in patent US11215608B2, “Methods of determining cellular chemosensitivity” (Dana-Farber Cancer Institute, Inc., priority 2006, dated 2022).
“And” between values parts separate entries of the source, which are not always exact repeats. Equal values may be shown once. Read-outs that look alike come from different tables or passages of the source.

Tests used:
[1] = target: T1, BCL-2:BIM complex (Homo sapiens, UniProt P10415); test: BCL-2 immunoprecipitation from treated primary CLL cells; format: cell-based; conditions: 100 nM, 24 hours
T1 construct: A BCL-2 antibody was used to immunoprecipitate BCL-2 from CLL lysates from four independent patient samples; endogenous in cells; host or cells: freshly isolated primary human CLL cells
T1 sequence (P10415 whole entry, one chain of several): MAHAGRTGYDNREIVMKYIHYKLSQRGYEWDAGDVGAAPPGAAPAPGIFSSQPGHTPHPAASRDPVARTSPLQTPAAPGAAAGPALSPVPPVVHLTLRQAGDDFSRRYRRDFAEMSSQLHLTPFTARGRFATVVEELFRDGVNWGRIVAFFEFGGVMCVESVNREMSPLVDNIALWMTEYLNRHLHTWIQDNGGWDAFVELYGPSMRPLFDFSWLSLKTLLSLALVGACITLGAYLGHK

[2] = target: T1, BCL-2:BIM complex; test: Displacement of BIM from immunoprecipitated BCL-2, detergent-free; format: binding; conditions: 1 μM, detergent-free conditions
[3] = test system: CLL cells; test: Annexin-V death assay of freshly isolated primary CLL cells; format: cell-based, human; conditions: five samples
[4] = test system: peripheral blood mononuclear cells (PBMC); test: Annexin-V death assay of normal PBMC; format: cell-based; conditions: Homo sapiens, 24 hours, read-out: EC50, PBMC from normal donors
Description: (§1) Cells were stained with fluorescent conjugates of Annexin-V (BioVision) and propidium iodide (PI) and analyzed on a FACSCalibur machine (Becton-Dickinson).
(§2) 15 ml of blood in heparin treated tubes was obtained from each anonymous CLL patient and processed without freezing. Equal volume of media (RPMI medium, 10% […], supplemented with […] and 10 mg/ml transferrin) was mixed with each sample and CLL cells isolated by centrifugation through Ficoll-PAQUE Plus (Amersham). Cells were washed twice in media and cultured at a density of 2.0×10^6 cells/ml for up to 48 hours. Samples for FIG. 11A were obtained from 24 consecutive patients identified with WBC >50,000/μl. All guidelines and regulations were followed in accordance with IRB protocols #99-224 (Dana-Farber Cancer Institute). Normal PBMC's were obtained from tubing discarded following platelet donation by anonymous normal donors and processed as above, except cultured without insulin and transferrin.
CLL cells have shown sensitivity to ABT-737, so they were selected as a possible initial cancer model of BCL-2 dependence (Oltersdorf et al., 2005). Freshly isolated primary CLL cells were incubated with ABT-737 or negative control enantiomer. After 48 hours, death was assessed using Annexin-V staining. […] Directly targeting the apoptotic machinery might be expected to induce apoptosis rapidly.

[5] = target: T2, BCL-w (Homo sapiens, UniProt Q92843); conditions: cited from earlier work
T2 sequence (Q92843 1-193): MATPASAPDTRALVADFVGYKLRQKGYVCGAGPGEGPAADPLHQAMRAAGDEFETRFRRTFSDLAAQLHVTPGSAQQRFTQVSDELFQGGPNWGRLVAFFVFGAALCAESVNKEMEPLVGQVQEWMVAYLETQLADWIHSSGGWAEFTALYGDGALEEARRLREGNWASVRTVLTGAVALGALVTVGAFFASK

[6] = test system: BAX; test: BAX oligomerization in CLL cells; format: cell-based, human; conditions: 4 hours
Description: 10^7 freshly isolated CLL cells were incubated with DMSO, 10 nM, 100 nM, or 1 μM ABT-737 or negative control enantiomer for 4 hours, % dead assessed by Annexin-V staining and FACS analysis, then treated with 0.3% saponin and 10 μM BMH for 30 minutes on ice. Cells were then lysed, loaded onto a 10% BISTris polyacrlyamide gel, transferred, and immunoblotted for BAX.

[7] = test system: 2B4 cells; test: 2B4 cell viability with dexamethasone by Annexin V; format: cell-based, murine; conditions: 24 hours
Excerpt: as §1

[8] = test system: CLL mitochondria; test: Cytochrome c release from CLL mitochondria; format: biochemical, human; conditions: peptides or compounds 100 μM
Description: Alternatively, mitochondria were purified from freshly isolated CLL cells and cell lines by mechanical disruption followed by differential centrifugation, as previously described (Letai et al., 2002). Mitochondrial suspensions were made at 0.5 mg protein/ml, except for the case of ABT-737 and negative control enantiomer treatments, where 0.1 mg/ml was used. Release of cytochrome c was determined by a comparison of cytochrome c in the pellet and supernatant quantitated by ELISA (R&D systems).
CLL mitochondria were incubated with BH3 peptides as well as ABT-737 and negative control enantiomer (FIG. 14). […] This pattern is diagnostic of mitochondrial BCL-2 dependence. […] Since the BH3 peptides in the sensitizer panel lack the ability to directly activate BAX and BAK, these experiments also implicated the presence of an activator molecule constitutively sequestered by BCL-2 in CLL.

[9] = test system: FL5.12 cells; test: FL5.12 cell survival by Annexin V; format: cell-based, murine
Description: as §1
FL5.12 cells were cultured as described previously in Iscove's modified Dulbecco's medium, 10% fetal bovine serum, 1000 ug/ml G418 with or without IL-3 provided by 10% WEHI-3B supplement (supernatant of IL-3 secreting WEHI-3B cells). FL5.12 cells were stably transfected with a vector containing a neomycin resistance construct and either human BCL-2 cDNA (FL5.12-BCL-2) or no insert (wt). 2B4 cells were cultured in RPMI 1640 supplemented with 10% fetal bovine serum, 100 U/ml penicillin, 100 ug/ml streptomycin, 10 uM non-essential amino acids and 8 ul/L betamercaptoethanol. Stably transfected 2B4 cells were isolated after transfection with pLZR-GFP retroviral vector or vector with Flag-Mc1-1 (kind gift from Joe Opferman).
In order to test whether mitochondrial dependence on individual antiapoptotic protein function can be correlated with cellular behavior, cellular models of defined antiapoptotic dependence were investigated. First, it was determined if cellular requirement for BCL-2 for cellular survival correlates with the BCL-2 signature of mitochondrial sensitivity to sensitizer BH3 domains found in FIG. 1B. The pro-lymphocytic murine FL5.12 cell line requires IL-3 to maintain survival. […]

[10] = test system: CLL cells; test: Annexin-V death assay of freshly isolated primary CLL cells; format: cell-based, human; conditions: 48 hours
Description: as §1, §2
Experimental replicates were performed using lysates or mitochondria from different CLL samples. In main body, where a P value is given, it was obtained by using a two-tailed Students t-test, and P<0.05 was considered statistically significant. GraphPad Prism software was used to determine EC50 values by non-linear dose-response curve fitting and to perform Mann-Whitney nonparametric testing in Table 5.
Freshly isolated primary CLL cells were incubated with ABT-737 or negative control enantiomer. After 48 hours, death was assessed using Annexin-V staining.

Compound: CN(C)CC[C@H](CSc1ccccc1)Nc1ccc(S(=O)(=O)NC(=O)c2ccc(N3CCN(Cc4ccccc4-c4ccc(Cl)cc4)CC3)cc2)cc1[N+](=O)[O-] [ABT-737]
- amount of BIM bound to BCL-2 [1]: causes a dramatic reduction in the amount of BIM bound to BCL-2
- displacement of BIM from BCL-2 into the supernatant [2]: displaces BIM from BCL-2 into the supernatant
- response of CLL cells after four hours [3]: responded similarly compared to 48-hour treatment
- EC50 [4]: > 1000 nM
- affinity to BCL-w [5]: sub-nanomolar range
- oligomerization of BAX [6]: oligomerization of BAX within four hours
- effect on cell survival ([7]; BCL-2-protected dexamethasone-treated 2B4 cells): very sensitive to ABT-737
- effect on cell survival ([7]; MCL-1-protected dexamethasone-treated 2B4 cells): has no effect
- cytochrome c release [8]: also induced cytochrome c release
- toxicity ([9]; IL-3 replete wt FL5.12 cells): non-toxic
- cell death ([9]; IL-3 starved FL5.12-BCL-2 cells, 24 hours): induced cell death in the IL-3 starved
- EC50 ([10]; CLL cells of one patient per row (V1-V24), read-out: EC50 ABT-737): 3.6 nM and 2.1 nM and 3.1 nM and 1.9 nM and 4.1 nM and 8.7 nM and 5.8 nM and 6 nM and 3.3 nM and 6.4 nM and 2.9 nM and 9.4 nM and 2.3 nM and 4.8 nM and 4 nM and 7.4 nM and 6.1 nM and 7 nM and 3.2 nM and 3.5 nM
- EC50 ([10]; Homo sapiens, CLL cell, 48 h, twenty-four CLL samples, read-out: mean EC50, apoptosis of CLL cells): 4.5 nM
- EC50 ([10]; Homo sapiens, CLL cell, 48 h, twenty-four CLL samples, read-out: range of EC50 over CLL samples): 1.9 to 9.4 nM
